Assay [1] deals with T1, ELF3-MED23 protein-protein interaction (Homo sapiens, UniProt Q9ULK4).
T1 construct: followed by the addition of either the candidate compound or MED23 protein constructs; endogenous in cells; host or cells: 293T kidney cells (MED23 endogenous; GAL4-ELF3 transfected)
T1 sequence (Q9ULK4 1-1368): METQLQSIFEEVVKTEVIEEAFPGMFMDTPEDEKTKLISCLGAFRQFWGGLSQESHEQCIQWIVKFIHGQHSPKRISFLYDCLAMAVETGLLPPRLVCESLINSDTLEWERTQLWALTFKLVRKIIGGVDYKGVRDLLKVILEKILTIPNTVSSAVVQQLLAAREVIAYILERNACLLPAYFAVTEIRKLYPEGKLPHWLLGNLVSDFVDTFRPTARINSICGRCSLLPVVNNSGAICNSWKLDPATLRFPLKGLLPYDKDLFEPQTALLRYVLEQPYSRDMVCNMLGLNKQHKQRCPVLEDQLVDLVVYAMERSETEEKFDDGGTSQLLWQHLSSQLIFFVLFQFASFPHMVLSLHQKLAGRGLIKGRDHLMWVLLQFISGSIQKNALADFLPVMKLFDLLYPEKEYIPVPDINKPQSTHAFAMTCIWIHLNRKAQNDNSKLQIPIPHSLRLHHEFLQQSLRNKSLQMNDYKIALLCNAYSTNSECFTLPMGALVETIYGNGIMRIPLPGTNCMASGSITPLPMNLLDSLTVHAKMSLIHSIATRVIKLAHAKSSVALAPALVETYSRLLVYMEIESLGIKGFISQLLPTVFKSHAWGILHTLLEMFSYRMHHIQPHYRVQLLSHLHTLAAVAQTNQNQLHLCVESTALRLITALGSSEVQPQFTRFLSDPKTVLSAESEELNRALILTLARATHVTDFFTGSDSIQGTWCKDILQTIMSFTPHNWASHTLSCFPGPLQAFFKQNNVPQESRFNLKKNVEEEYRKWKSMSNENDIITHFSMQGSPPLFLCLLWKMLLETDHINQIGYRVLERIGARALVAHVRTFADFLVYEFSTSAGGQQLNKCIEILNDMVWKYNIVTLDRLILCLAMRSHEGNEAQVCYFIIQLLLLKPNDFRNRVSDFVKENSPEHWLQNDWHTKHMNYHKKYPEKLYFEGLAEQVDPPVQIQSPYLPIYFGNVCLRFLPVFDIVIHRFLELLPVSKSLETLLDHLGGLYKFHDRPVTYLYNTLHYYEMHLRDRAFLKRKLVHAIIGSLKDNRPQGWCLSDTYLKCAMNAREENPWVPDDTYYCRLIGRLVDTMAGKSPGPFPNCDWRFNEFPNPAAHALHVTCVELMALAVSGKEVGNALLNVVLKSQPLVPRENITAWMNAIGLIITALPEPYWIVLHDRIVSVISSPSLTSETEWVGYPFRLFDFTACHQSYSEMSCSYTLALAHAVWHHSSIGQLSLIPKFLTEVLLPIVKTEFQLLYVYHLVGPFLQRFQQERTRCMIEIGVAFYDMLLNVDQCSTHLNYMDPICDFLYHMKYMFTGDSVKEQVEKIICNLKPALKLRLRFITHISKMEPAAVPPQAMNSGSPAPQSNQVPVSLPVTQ
The following applies: cited from earlier work; for PPI inhibitory activity relative to gefitinib: ELF3-MED23 PPI.

For assay [2], the target named is T1, ELF3-MED23 protein-protein interaction. Description: SEAP reporter assay, ELF3-MED23 PPI inhibition (293T kidney cells). In kind it is cell-based. The following applies: 10 μM; for inhibition at 10 µM: HEK-293T. As to the method:
To verify whether the D400 and H449 residues play a critical role in the ELF3-MED23 protein-protein interaction, a SEAP assay was performed. Specifically, 293T kidney cells were seeded at a density of 5×10^3 cells/well in a 96-well microplate (SPL, Korea) and cultured overnight. Subsequently, the cells were co-transfected with 100 ng of each plasmid using transfection-optimized medium (Welgene, Korea). The plasmids used included the SEAP reporter gene (pG5IL2SX) and GAL4-ELF3 expression vector (pBJ GAL4-ELF3). For transfection, the cells were incubated with WelFectQ (Welgene, Korea) for 3 hours, followed by the addition of either the candidate compound or MED23 protein constructs (pcDNA MED23^WT, K397A, D400A, H449G, and D400A/H449G). The treated cells were incubated for 12 hours. The candidate compound was added in an incubator at 5% CO2 and 37 °C, and the plate was incubated at 65 °C for 3 hours to inactivate all enzymes except SEAP (Secreted Alkaline Phosphatase). A mixture comprising 100 μL of substrate solution prepared with 1.19 μL of 0.1 M 4-methylumbelliferyl phosphate (Sigma, USA), 25 μL of inactivated medium, and 75 μL of double-distilled water was added, followed by the addition of 98.81 μL of 2 M diethanolamine (pH 10, Sigma, USA). The plate was incubated overnight at 37 °C. Subsequently, the fluorescence intensity was measured using a fluorometer (SPECTRAmax […], Molecular Devices, USA) at an excitation wavelength of 360 nm and an emission wavelength of 440 nm.
To further elaborate on the above findings, small molecule compounds that could affect the ELF3-MED23 PPI were designed and synthesized. Specifically, non-essential side chains were removed from gefitnib, and compounds were designed to include both hydrogen bond donors and acceptors for the D400 and H449 residues of MED23, respectively (FIG. 4A). Specifically, chalcones and pyrazolines were selected as core scaffolds, and 25 compounds (11 chalcones and 14 pyrazoline-based compounds) were prepared. The ELF3-MED23 PPI inhibitory activity of all prepared compounds was measured using a SEAP assay.
A general note: In a reporter assay the amount or activity of a reporter protein is the signal.

For assay [3], the system named is HCT15 (HER2-positive colorectal cancer cell line). Description: antiproliferative effect, HCT15. In kind it is cell-based. As to conditions: Homo sapiens, HCT-15, 72 hours. As to the method:
(§1) The antiproliferative effects were measured after treating Compounds 1 to 22 for 72 hours on HCT15 (HER2-positive colorectal cancer cell line), NCI-N87 (HER2-positive gastric cancer cell line), T47D (HER2-negative breast cancer cell line), and HeLa (HER2-negative cervical cancer cell line). As a result, strong antiproliferative effects were generally observed in the NCI-N87 cell line (Table 2).
(§2) The antiproliferative effects of the candidate compound, resulting from HER2 inhibition, were evaluated. Specifically, to confirm the anticancer effects of the candidate compound, cancer cells were seeded at a density of 10^4 cells/well in a 96-well cell culture plate for 20 hours. The cells were starved in serum-free media for 4 hours, followed by replacement with media containing the compound at specified concentrations. The cells were then incubated for 72 hours under conditions of 5% CO2 at 37 °C. Cell viability was determined by adding 5 μL of EZ-CytoX to each well and measuring absorbance at 450 nm. The measurements were performed using an ELISA Microplate Reader (VersaMax, Molecular Devices).

For assay [4], the system named is NCI-N87 (HER2-positive gastric cancer cell line). Description: antiproliferative effect, NCI-N87. In kind it is cell-based. The following applies: Homo sapiens, NCI-N87; 72 hours; HER2-positive. The method, then:
as §1, §2

Assay [5] relates to T47D (HER2-negative breast cancer cell line). Description: antiproliferative effect, T47D. In kind it is cell-based. As to conditions: Homo sapiens, 72 hours. As to the method: as §1, §2
Assay [6] relates to HeLa (HER2-negative cervical cancer cell line). Description: antiproliferative effect, HeLa. The following applies: Homo sapiens, 72 hours. The format is cell-based. As to the method: as §1, §2
Assay [7] has as its target T2, (His)6-MED23391-582 / FITC-ELF3129-145 peptide (Homo sapiens, UniProt Q9ULK4).
T2 construct: 391-582 and fluorescein isothiocyanate (FITC)-labeled
T2 sequence (Q9ULK4 391-582 limits assumed): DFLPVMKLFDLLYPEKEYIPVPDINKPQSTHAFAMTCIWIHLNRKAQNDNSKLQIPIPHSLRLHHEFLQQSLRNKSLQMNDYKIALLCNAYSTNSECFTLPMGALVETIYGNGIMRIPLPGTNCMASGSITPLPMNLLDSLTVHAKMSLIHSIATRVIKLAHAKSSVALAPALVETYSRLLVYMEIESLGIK
Description: fluorescence polarization displacement assay. The following applies: 80 nM (His)6-MED23391-582, 10 nM FITC-ELF3129-145; Cheng-Prusoff; read-out: PPI inhibitory activity calculated based on Ki value. In kind it is binding. The method, then:
The samples, adjusted to a final volume of 50 μL, were incubated at room temperature for 30 minutes. Kd values were calculated using a least-squares non-linear fit method with Prism 6.0 software (GraphPad Software, USA). FP signals were measured in millipolarization (mP) units using an Infinite F200 PRO microplate reader (Tecan Group Ltd., Switzerland) at an excitation wavelength of 485 nm and an emission wavelength of 535 nm. For displacement analysis, graded concentrations of YK1 and unlabeled ELF3137-144 peptides were mixed with 80 nM (His) 6-MED23391-582 and 10 nM FITC-ELF3129-145.
The effect of compound YK1 was confirmed by measuring the reduction in FP signals, using unlabeled peptides as a positive control. The IC50 of each compound was determined by fitting the data to a four-parameter logistic equation using the Table Curve 2D program (SPSS Inc.). The Ki value was calculated using the Cheng-Prusoff equation (Ki=IC50/1+([Ligand]/Kd))

Where only a bound is given, the exact number is not on record here.

Take `CC(C)N(CC(O)COc1cccc2[nH]ccc12)C(=O)N1CCC(C2CCN(C(=O)C34CC5CC(CC(C5)C3)C4)CC2)CC1` (centres unmarked) [adamanolol]: in assay [1], the “known ELF3-MED23 PPI inhibition” value is listed as “inhibit ELF3-MED23 protein-protein interaction (PPI)”.
For `Cc1ccc(S(=O)(=O)n2ccc3c(OCC(O)CN(CCCCCN)C(=O)N4CCC(C5CCN(C(=O)C67CC8CC(CC(C8)C6)C7)CC5)CC4)cccc32)cc1` (centres unmarked) [wrenchnolol], the “known ELF3-MED23 PPI inhibition” value in assay [1] is “inhibit ELF3-MED23 protein-protein interaction (PPI)”.
One may read the inhibition as the change of the read-out against control, counted positive when it falls. The term IC50 denotes the point on the concentration scale where inhibition reaches its midpoint. Regarding `CC(=O)N1N=C(c2ccccc2O)CC1c1ccc(O)cc1` (centres unmarked) [Compound 19, 1-[5-(4-Hydroxyphenyl)-3-(2-hydroxyphenyl)-4,5-dihydropyrazol-1-yl]-ethanone], the inhibition at 10 µM in assay [2] was 39%. For the same compound, the IC50 in assay [3], in assay [4], in assay [5] and in assay [6] was greater than 50 µM in each case.
For orientation: Ki means the dissociation constant of the complex between target and ligand, obtained from inhibition or displacement. As for “ELF3137-144: ELF3137-144 peptide (8 a.a.), amino acids 137-144 of ELF3 (SWIIELLE; UniProt P78545 137-144, looked up, fragment) [reference compound]”, the “SEAP assay Inhibition (%)” value in assay [2] was found to be 53%. In addition, the Ki in assay [7] is 0.78 ± 0.05 µM. Moreover, the “PPI inhibitory activity relative to gefitinib” value in assay [1] is “superior PPI inhibitory activity compared to gefitinib”.
Consider `COc1cc2ncnc(Nc3ccc(F)c(Cl)c3)c2cc1OCCCN1CCOCC1` [Gefitinib, gefitinib, reference compound], for which, in assay [2], the inhibition at 10 µM amounted to 85%. Further, the “known ELF3-MED23 PPI inhibition” value in assay [1] is “inhibit ELF3-MED23 protein-protein interaction (PPI)”.
As for `CC(=O)N1N=C(c2cccc(O)c2)CC1c1ccco1` (centres unmarked) [Compound 12, 1-[5-Furan-2-yl-3-(3-hydroxyphenyl)-4,5-dihydropyrazol-1-yl]-ethanone], in assay [2], the inhibition at 10 µM came to 58%. The IC50 in assay [3], in assay [4], in assay [5] and in assay [6] was greater than 50 µM each time.
Regarding `CC(=O)N1N=C(c2ccccc2O)CC1c1cccs1` (centres unmarked) [Compound 21, 1-[3-(2-Hydroxyphenyl)-5-thiophen-2-yl-4,5-dihydropyrazol-1-yl]-ethanone], testing at 10 µM in assay [2] gave an inhibition of 57%. Further, the IC50 in assay [3], in assay [4], in assay [5] and in assay [6] was greater than 50 µM in each case.
In the case of `C=CC(=O)Nc1cc2c(Nc3ccc(F)c(Cl)c3)ncnc2cc1OCCCN1CCOCC1` [canertinib], in assay [1], the “PPI inhibitory activity relative to gefitinib” value is “superior PPI inhibitory activity compared to gefitinib” and the “known ELF3-MED23 PPI inhibition” value is listed as “inhibit ELF3-MED23 protein-protein interaction (PPI)”.
In turn, `COc1ccc(C2CC(c3ccccc3O)=NN2C(C)=O)cc1` (centres unmarked) [Compound 22, 1-[3-(2-Hydroxyphenyl)-5-(4-methoxyphenyl)-4,5-dihydropyrazol-1-yl]-ethanone] came in with an inhibition at 10 µM in assay [2] of 63%. For the same compound, the half-inhibitory concentration (IC50) is 40.3 ± 0.51 µM in assay [3], greater than 50 µM in assay [4], greater than 50 µM in assay [5] and greater than 50 µM in assay [6].
For `O=C(/C=C/c1ccc(O)cc1)c1ccccc1O` [Compound 9, 3-(4-Hydroxyphenyl)-1-(2-hydroxyphenyl)-propenone], 10 µM produced 50% inhibition in assay [2]. Moreover, the half-maximal inhibitory concentration (IC50) in assay [3] is greater than 50 µM; in assay [4], greater than 50 µM; in assay [5], 27.89 ± 0.06 µM; in assay [6] it was greater than 50 µM.
In turn, `O=C(/C=C/c1ccc(O)cc1)c1cccc(O)c1` [Compound 5, 3-(4-Hydroxyphenyl)-1-(3-hydroxyphenyl)-propenone] gave an inhibition at 10 µM in assay [2] of 60%. Further, the IC50 in assay [3] worked out at 8.97 ± 0.17 µM; in assay [4], 17.82 ± 0.17 µM; in assay [5], 9.04 ± 0.07 µM; in assay [6], 30.02 ± 0.18 µM.
In turn, `COc1ccc(/C=C/C(=O)c2cccc(O)c2)cc1` [Compound 2, 1-(3-Hydroxyphenyl)-3-(4-methoxyphenyl)-propenone] yielded an inhibition at 10 µM in assay [2] of 41%. The IC50 in assay [3] is 8.51 ± 0.01 µM; in assay [4] it was 10.7 ± 0.31 µM; in assay [5] it was 18.9 ± 0.2 µM; in assay [6], 9.85 ± 0.37 µM.

The values above are taken from patent US20260373119A1, “NOVEL COMPOUND, AND COMPOSITION FOR PREVENTING OR TREATING HER2-POSITIVE CANCER, COMPRISING SAME” (EWHA UNIVERSITY - INDUSTRY COLLABORATION FOUNDATION, priority 2022, published 2026).
